Assay results: US12564601B2, “Methods for treating hepatitis B infection” (priority 2017, dated 2026)
Read-outs that look alike come from different tables or passages of the source.

Key:
HBV = assay: Entecavir combination study in HBV-expressing mouse (HDI model); type: in vivo, mice; conditions: for circulating (plasma) HBsAg / hepatic viral RNAs (liver HBV mRNA and pgRNA): HDI model; for circulating (plasma) HBsAg: ELISA; for hepatic viral RNAs (liver HBV mRNA and pgRNA): qPCR
Description: The RNAi oligonucletoides targeting the S antigen impact both the viral polymerase and HBsAg protein. In this study, the combinational effects of HBV(s)-219P2 as a monotherapy and combinational treatment with entecavir was explored in an HBV-expressing mouse (HDI model) for antiviral activity.
Mice were administered daily oral dosing of 500 ng/kg Entecavir (ETV) for 14 days. A single subcutaneous administration of HBV(s)-219P2 took place. Circulating viral load (HBV DNA) was measured by qPCR (FIG. 15A), plasma HBsAg level was measured by ELISA (FIG. 15B), and liver HBV mRNA and pgRNA levels were measured by qPCR.

HBsAg = assay: Plasma HBsAg suppression, S- versus X-targeting oligonucleotides, HDI model; type: in vivo, mice; conditions: single saturating 9 mg/kg SC dose, n=3
Description: In this study, HBV-expressing mice (HDI model) were administered HBV(s)-219P2, GalXC-HBVX (same sequence as the GalXC-HBVX used in FIGS. 12A and 12B), or a combination of the two RNAi oligonucleotides and plasma HBsAg level two weeks or nine weeks post dose were monitored.

HBsAg mRNA = assay: Time course of HBsAg mRNA expression in HDI model of HBV; type: in vivo, mouse; conditions: three once-weekly doses of 3 mg/kg
Description: The durational effects of the HBV(s)-219P1 oligonucleotide were examined in two different mouse models of HBV—an HDI model, which is cccDNA-dependent, and an AAV model, which is cccDNA independent. A time course (12 weeks) analysis of HBsAg mRNA expression was performed in the context of a treatment involving three once-weekly doses of 3 mg/kg with the HBV(s)-219P1 oligonucleotide targeting HBsAg mRNA compared with vehicle control and an RNAi oligonucleotide targeting HBxAg mRNA in the HDI model of HBV (FIG. 12A).

HBsAg viral transcript = assay: HBsAg levels in HDI-mice after subcutaneous HBV-254; type: in vivo
Description: Preclinical potency was further evaluated in mice following a QW×3 dosing regimen in which HBV-254 was subcutaneously administered at 3 mg/kg (FIG. 3). The administration points are indicated by arrows in the figure. HBsAg levels were monitored in both oligonucleotide treated and untreated control mice for a period spanning 147 days.

[1] = system: HBV Genotype A S ORF reporter sequence; assay: psiCHECK2 dual-luciferase reporter mismatch assay in HeLa cells; type: cell-based
Source text: A psiCHECK-2 dual-luciferase reporter system was utilized to evaluate the effects of a mismatch at a selected position in each of HBV-217, HBV-219, HBV-254, HBV-255, and HBV-258. The psiCHECK vector enables monitoring of changes in expression of a target gene fused to a reporter gene, where active RNAi degrades the fusion construct to produce a corresponding decrease in reporter signal. The diagram in FIG. 6 generically depicts the vector utilized in these assays. The parent partial reporter sequence contained 120 base-pair fragments from Genotype A (GenBank: AM282986.1) around target sites of interest in the S ORE. […]
The psiCHECK2 reporter assays with each oligonucleotide were conducted over a three-day period using a 6-point, 5-fold serial dilution starting at 1 nM transfected in HeLa cells. […] The cells were then incubated at 37° C. in a CO2 incubator until the cells were ready to harvest and assay for the target gene. On day 3, 100 μL of Dual-Glo Reagent was added to each well, mixed and incubated for 10 minutes before reading the luminescence. A further 100 μL of Dual-Glo Stop & Glo was added to each well, mixed and incubated for 10 minutes before reading the luminescence. […] The EC50s values determined for each oligonucleotide are shown in Table 3 with additional specifications.

Compound: C=C1[C@H](CO)[C@@H](O)C[C@@H]1n1cnc2c(=O)[nH]c(N)nc21 [entecavir, Entecavir]
- mean decrease in HBV DNA in plasma relative to PBS (HBV; 500 ng/kg PO daily for 14 days, n=6): ~1.6 log
- circulating (plasma) HBsAg (HBV): No significant decrease
- circulating (plasma) HBsAg (HBV; listed as ETV): no efficacy
- hepatic viral RNAs (liver HBV mRNA and pgRNA) (HBV): No significant decrease
- hepatic viral RNAs (liver HBV mRNA and pgRNA) (HBV; listed as ETV): no efficacy

Compound: GalXC-HBVX: RNAi oligonucleotide targeting HBxAg mRNA, sense strand SEQ ID NO: 39, antisense strand SEQ ID NO: 40 (sense UGCACUUCGCGUCACCUCUAGCAGCCGAAAGGCUGC; antisense UAGAGGUGACGCGAAGUGCAGG; GalNAc conjugate (GalXC), modification pattern not given here)
- plasma HBsAg suppression 9 weeks post dose / duration (HBsAg): significant recovery of HBsAg
- duration of activity (HBsAg mRNA): shorter duration
- reduction of HBsAg mRNA expression (HBsAg mRNA; 12-week time course): ~3.0 log

Compound: HBV-254: HBsAg-targeting duplex oligonucleotide, sense strand SEQ ID NO: 23, antisense strand SEQ ID NO: 24 (sense GUGGUGGACUUCUCUCAAUAGCAGCCGAAAGGCUGC; antisense UAUUGAGAGAAGUCCACCACGG; listed as RNA, chemistry not given here)
- HBsAg levels relative to control (HBsAg viral transcript; QW×3, 3 mg/kg subcutaneous, monitored 147 days (FIG. 3)): Diminished HBsAg levels persisted in treated mice throughout the entirety of the study
- HBsAg levels (HBsAg viral transcript; single dose evaluation, subcutaneous, HDI-mice (FIG. 2)): systematically reduced HBsAg levels in mice with increasing dosage
- EC50 ([1]; mismatch duplex, single mismatch to reporter at stated guide position, read-out: MM EC50s): 0.096 nM
- EC50 ([1]; parent duplex, 100% homology to reporter, read-out: Parent EC50s): 0.037 nM
